In series [1] the test system is B. subtilis. The series is described as follows: Growth inhibition screening (broth dilution). It counts as cell-based, Bacillus subtilis. The conditions noted are these: Bacillus subtilis. The procedure: (§1) In vitro screening of the compounds (PS1–14) was performed to assess the antibacterial activity against three Gram-positive (Staphylococcus aureus, Enterococcus faecalis and Bacillus subtilis,) and three Gram-negative (Pseudomonas aeruginosa, Klebsiella pneumonia and Escherichia coli) bacterial strains using the standard NCCLS broth dilution assay. The study’s standard drugs were ciprofloxacin (CIP) and ampicillin (AMP). Compounds were dissolved in a polar solvent (DMSO) and distributed into a 96-well plate in 200 µL of nutrient broth medium, with a final concentration of the compounds […] in each well. The bacterial cells (about 2.5 × 10^5 cells/mL) were inoculated into each well and incubated at 37 °C overnight. After incubation, the growth was measured by turbidity of the culture at 590 nm by spectrophotometer.
Background: Dilution methods test growth across graded concentrations, often in twofold steps.

Series [2] deals with SpMetAP1a (Streptococcus pneumoniae, UniProt Q8DPV1). The series is described as follows: MetAP enzyme inhibition, Morrison Ki (Met-AMC fluorescence). Type of series: biochemical. The conditions noted are these: Morrison Ki method.
The subject of series [3] is S. aureus. The series is described as follows: Growth inhibition screening (broth dilution). It counts as cell-based, Staphylococcus aureus. The conditions noted are these: Staphylococcus aureus. How it is done:
as §1

The test system of series [4] is K. pneumoniae. Nature of the series: Growth inhibition screening (broth dilution). The settings on record: Klebsiella pneumoniae. Type of series: cell-based, Klebsiella pneumonia. How it is done:
as §1

The test system of series [5] is E. faecalis. Nature of the series: Growth inhibition screening (broth dilution). Type of series: cell-based, Enterococcus faecalis. The settings on record: Enterococcus faecalis. The procedure: as §1
For series [6], the system named is E. coli. The series is described as follows: Growth inhibition screening (broth dilution). The conditions noted are these: Escherichia coli. Type of series: cell-based, Escherichia coli. The procedure:
as §1

Series [7] deals with P. aeruginosa. The series is described as follows: Growth inhibition screening (broth dilution). It counts as cell-based, Pseudomonas aeruginosa. The settings on record: Pseudomonas aeruginosa. The procedure: as §1
The target of series [8] is T1, MtMetAP1c (Mycobacterium tuberculosis, UniProt P9WK19).
T1 construct: made in house
The series is described as follows: MetAP enzyme inhibition, Morrison Ki (Met-AMC fluorescence). It counts as biochemical, M. tuberculosis. The conditions noted are these: Morrison Ki method. How it is done:
MetAP appears to serve a vital role in the co- or post-translational modification of proteins, making it essential for bacterial cell metabolism and survival. In this study, all enzymes, which were used for this study, including MtMetAP1c (M. tuberculosis), EfMetAP1a (E. faecalis), SpMetAP1a (S. pneumoniae) and HsMetAP1b (H. sapiens) enzymes, were expressed and purified in our lab as previously reported. All compounds prepared 10 mM stocks in DMSO and were used for enzyme inhibition studies. The concentration of each enzyme is adjusted such that they have similar reaction rates (HsMetAp1b, 1 µM; SpMetAP1a, 5 µM; EfMetAP1a, 1 µM; MtMetAP1c, 1 µM;) as reported earlier. All assays were performed in […] reaction containing 50 mM HEPES (pH 7.5 for SpMetAP1a and HsMetAP1b; 8.0 for EfMetAP1a, MtMetAP1c, […]), 150 mM NaCl, and CoCl2 (three molar equivalents of corresponding enzymes). The reaction was started by adding 50 μM L-Methionine 7-amido-4-methyl coumarin (Met-AMC) and continuously monitoring the fluorescence of released 7-amino-4-methyl coumarin (AMC) (380 nm excitation and 460 nm emission) in a microplate multimode reader (TECAN, Austria). The maximum percentage of inhibition against enzymes is calculated at […] compound concentration. […] The Ki values were determined according to the Morrison method using three different concentrations of substrates and ten different concentrations of the inhibitor. All experiments were performed in triplicate. GraphPad Prism version 8.0.0 (San Diego, CA, USA) was used to determine all the kinetic parameters.

Series [9] has as its target EfMetAP1a (Enterococcus faecalis, UniProt Q832M5). The description is as above. The conditions noted are these: Morrison Ki method. It counts as biochemical.

From article PMC9405123, “Design, Synthesis and Mechanistic Studies of Novel Isatin-Pyrazole Hydrazone Conjugates as Selective and Potent Bacterial MetAP Inhibitors” (Antibiotics, 2022) come the findings set out here.

Structures are written as SMILES.

SpMetAP1a, sequence (Q8DPV1 entry or part of it): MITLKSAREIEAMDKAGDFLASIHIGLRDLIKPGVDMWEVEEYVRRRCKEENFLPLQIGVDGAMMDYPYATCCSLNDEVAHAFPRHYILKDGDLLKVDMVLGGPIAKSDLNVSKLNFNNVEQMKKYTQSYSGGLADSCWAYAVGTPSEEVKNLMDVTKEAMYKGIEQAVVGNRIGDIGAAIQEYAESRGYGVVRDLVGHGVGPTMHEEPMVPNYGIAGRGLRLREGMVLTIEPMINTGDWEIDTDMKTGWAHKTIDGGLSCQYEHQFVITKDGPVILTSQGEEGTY
T1 sequence (P9WK19 whole entry): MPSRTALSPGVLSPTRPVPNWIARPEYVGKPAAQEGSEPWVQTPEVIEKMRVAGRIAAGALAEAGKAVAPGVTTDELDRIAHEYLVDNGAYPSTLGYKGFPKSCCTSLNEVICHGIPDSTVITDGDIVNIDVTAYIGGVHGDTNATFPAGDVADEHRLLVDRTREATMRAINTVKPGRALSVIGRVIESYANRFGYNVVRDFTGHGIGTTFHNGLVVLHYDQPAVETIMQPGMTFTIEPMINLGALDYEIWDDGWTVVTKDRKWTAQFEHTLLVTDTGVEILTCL
EfMetAP1a, sequence (Q832M5 entry or part of it): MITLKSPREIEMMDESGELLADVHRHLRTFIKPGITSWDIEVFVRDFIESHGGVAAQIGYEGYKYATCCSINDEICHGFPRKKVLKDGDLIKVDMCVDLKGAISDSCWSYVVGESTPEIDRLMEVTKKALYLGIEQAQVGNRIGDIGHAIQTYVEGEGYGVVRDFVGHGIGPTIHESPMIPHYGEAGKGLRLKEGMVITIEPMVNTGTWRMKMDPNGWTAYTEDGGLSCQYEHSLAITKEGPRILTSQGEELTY

What is called inhibition is the drop in the measured response relative to a control, in per cent. A low value points to little suppression. A word on the Ki: it is a measure of affinity in units of concentration, obtained from inhibition or displacement. Read a high Ki as a looser hold on the target. One may read the melting point as the temperature, or range, at which the solid turns liquid. Compound `O=C1Nc2cc([N+](=O)[O-])ccc2/C1=N\NC(=O)c1cc(-c2cccc(Br)c2)n[nH]1` [PS14, (E)-3-(3-Bromophenyl)-N′-(6-Nitro-2-Oxoindolin-3-Ylidene)-1H-Pyrazole-5-Carbohydrazide] displayed a melting point of 225 to 228 °C. The inhibition at 250 µg/mL in [1] was found to be 86%. The same compound showed a Ki in series [2] of 0.5 ± 0.03 µM. Also, 250 µg/mL produced 33% inhibition in series [3]. In series [4], the inhibition at 250 µg/mL came to 17%. In series [5], the inhibition at 250 µg/mL stood at 9%. The compound also returned an inhibition at 250 µg/mL in [6] of 34%. For the same compound, the inhibition at 250 µg/mL in series [7] came out at 3%. The compound further showed a Ki in series [8] of 1.27 µM.

`O=C1Nc2c(cccc2[N+](=O)[O-])/C1=N\NC(=O)c1cc(-c2cccc(Br)c2)n[nH]1` [PS10, (E)-3-(3-Bromophenyl)-N′-(7-Nitro-2-Oxoindolin-3-Ylidene)-1H-Pyrazole-5-Carbohydrazide] came in with a melting point of 215 to 218 °C. 250 µg/mL produced 56% inhibition in series [1]. In [3], 250 µg/mL produced 82% inhibition. In addition, the inhibition at 250 µg/mL in series [4] was 52%. Further, in [5], the inhibition at 250 µg/mL was found to be 85%. Also, in series [6], the inhibition at 250 µg/mL was 88%. In series [7], this compound yielded an inhibition at 250 µg/mL of 100%.

Consider `O=C1Nc2ccc(Cl)cc2/C1=N\NC(=O)c1cc(-c2cccc(Br)c2)n[nH]1` [PS8, (E)-3-(3-Bromophenyl)-N′-(5-Chloro-2-Oxoindolin-3-Ylidene)-1H-Pyrazole-5-Carbohydrazide], for which the melting point fell in the range of 217 to 220 °C. For the same compound, the inhibition at 250 µg/mL in series [1] is 93%. For the same compound, the inhibition at 250 µg/mL in series [3] was determined as 3%. The compound further showed an inhibition at 250 µg/mL in series [4] of 52%. In [5], this compound showed an inhibition at 250 µg/mL of 13%. In [6], this compound returned an inhibition at 250 µg/mL of 84%. In [7], this compound yielded an inhibition at 250 µg/mL of 100%.

Regarding `O=C1Nc2c(Cl)cccc2/C1=N\NC(=O)c1cc(-c2cccc(Br)c2)n[nH]1` [PS13, (E)-3-(3-Bromophenyl)-N′-(7-Chloro-2-Oxoindolin-3-Ylidene)-1H-Pyrazole-5-Carbohydrazide], the melting point is 205 to 208 °C. The compound further registered an inhibition at 250 µg/mL in series [1] of 33%. This compound also came in with an inhibition at 250 µg/mL in [3] of 92%. The compound also yielded an inhibition at 250 µg/mL in series [4] of 74%. In series [5], this compound had an inhibition at 250 µg/mL of 36%. In series [6], this compound returned an inhibition at 250 µg/mL of 20%. Also, in series [7], the inhibition at 250 µg/mL came to 95%.

`Cc1cc(C)c2c(c1)/C(=N\NC(=O)c1cc(-c3cccc(Br)c3)n[nH]1)C(=O)N2` [PS4, (E)-3-(3-Bromophenyl)-N′-(5,7-Dimethyl-2-Oxoindolin-3-Ylidene)-1H-Pyrazole-5-Carbohydrazide] registered a melting point of 257 to 260 °C. In series [1], this compound came in with an inhibition at 250 µg/mL of 44%. Also, the inhibition at 250 µg/mL in series [3] was found to be 81%. The compound further returned an inhibition at 250 µg/mL in series [4] of 97%. In series [5], this compound yielded an inhibition at 250 µg/mL of 47%. Also, the inhibition at 250 µg/mL in series [6] stood at 80%. Moreover, 250 µg/mL produced 90% inhibition in series [7].

`O=C1Nc2ccc(Br)cc2/C1=N\NC(=O)c1cc(-c2cccc(Br)c2)n[nH]1` [PS5, (E)-N′-(5-Bromo-2-Oxoindolin-3-Ylidene)-3-(3-Bromophenyl)-1H-Pyrazole-5-Carbohydrazide]: the melting point was in the range of 230 to 233 °C. The same compound registered an inhibition at 250 µg/mL in series [1] of 34%. The inhibition at 250 µg/mL in series [3] is 100%. Further, in [4], testing at 250 µg/mL gave an inhibition of 100%. This compound also returned an inhibition at 250 µg/mL in series [5] of 86%. This compound showed an inhibition at 250 µg/mL in [6] of 9%. This compound also showed an inhibition at 250 µg/mL in series [7] of 100%. Moreover, in series [8], affinity was put at a Ki of 3.14 ± 0.41 µM.

With `COc1ccc2c(c1)NC(=O)/C2=N/NC(=O)c1cc(-c2cccc(Br)c2)n[nH]1` [PS12, (E)-3-(3-Bromophenyl)-N′-(6-Methoxy-2-Oxoindolin-3-Ylidene)-1H-Pyrazole-5-Carbohydrazide], the melting point lay in the range of 228 to 230 °C. The compound further showed an inhibition at 250 µg/mL in series [1] of 85%. In addition, testing at 250 µg/mL in series [3] gave an inhibition of 100%. Also, the inhibition at 250 µg/mL in [4] worked out at 6%. Moreover, testing at 250 µg/mL in [5] gave an inhibition of 65%. In series [9], this compound displayed an inhibition constant (Ki) of 3.25 ± 0.14 µM. Besides, in series [6], the inhibition at 250 µg/mL turned out to be 74%. Besides, in series [7], the inhibition at 250 µg/mL turned out to be 23%. Besides, the inhibition constant Ki in [8] was determined as 0.61 ± 0.03 µM.

In turn, `Cc1ccc2c(c1)/C(=N\NC(=O)c1cc(-c3cccc(Br)c3)n[nH]1)C(=O)N2` [PS2, (E)-3-(3-Bromophenyl)-N′-(5-Methyl-2-Oxoindolin-3-Ylidene)-1H-Pyrazole-5-Carbohydrazide] displayed a melting point of 209 to 213 °C. In series [1], the inhibition at 250 µg/mL was found to be 80%. Also, the inhibition constant Ki in [2] was found to be 2.98 ± 0.18 µM. The compound also gave an inhibition at 250 µg/mL in series [3] of 66%. This compound returned an inhibition at 250 µg/mL in series [4] of 90%. The compound also returned an inhibition at 250 µg/mL in series [5] of 10%. In series [6], this compound returned an inhibition at 250 µg/mL of 86%. In series [7], this compound gave an inhibition at 250 µg/mL of 87%. This compound also showed an inhibition constant Ki in series [8] of 4.37 ± 0.14 µM.

On to `O=C1Nc2cc(F)ccc2/C1=N\NC(=O)c1cc(-c2cccc(Br)c2)n[nH]1` [PS7, (E)-3-(3-Bromophenyl)-N′-(6-Fluoro-2-Oxoindolin-3-Ylidene)-1H-Pyrazole-5-Carbohydrazide], for which the melting point was 228 to 230 °C. Moreover, the inhibition at 250 µg/mL in [1] stood at 100%. Besides, in series [3], the inhibition at 250 µg/mL worked out at 10%. The inhibition at 250 µg/mL in series [4] turned out to be 49%. For the same compound, testing at 250 µg/mL in series [5] gave an inhibition of 99%. Further, in series [6], the inhibition at 250 µg/mL was determined as 3%. In series [7], this compound came in with an inhibition at 250 µg/mL of 65%.

`O=C1Nc2ccccc2/C1=N\NC(=O)c1cc(-c2cccc(Br)c2)n[nH]1` [PS1, (E)-3-(3-Bromophenyl)-N′-(2-Oxoindolin-3-YLIDENE)-1H-Pyrazole-5-Carbohydrazide] returned a melting point of 218 to 221 °C. The compound also showed an inhibition at 250 µg/mL in [1] of 76%. Also, the Ki in series [2] stood at 4.48 ± 0.12 µM. This compound also yielded an inhibition at 250 µg/mL in [3] of 73%. Moreover, the inhibition at 250 µg/mL in [4] is 74%. In [5], this compound came in with an inhibition at 250 µg/mL of 12%. Also, the Ki in series [9] worked out at 2.65 ± 0.34 µM. The compound further registered an inhibition at 250 µg/mL in [6] of 40%. The compound further yielded an inhibition at 250 µg/mL in series [7] of 4%. The Ki in [8] amounted to 2.3 ± 0.27 µM.
